From the OPERA property sets (Mansouri et al. 2018) come the findings set out here.

Usually melting point stands for the temperature of the solid-liquid transition. The term boiling point denotes the temperature at which the vapour pressure of the liquid equals the pressure above it.

Details in the first data set: not given
Consider `Cc1ccc(C(=O)O)cc1C`, for which the melting point was 165 °C.
In the case of `CCCc1ccc(C(=O)O)cc1`, the melting point is 143 °C.
As for `CCC(=O)Cl`, the boiling point came out at 80 °C and the melting point was -94 °C.
Molecule `CC(C)(O)C(F)(F)F` yielded a boiling point of 81 °C.
`CC(CCO)CCO`: the ready biodegradability result was “readily biodegradable”.
Take `CCCCC(C)C`: the boiling point was found to be 90 °C, the log10 biodegradation half-life (days) turned out to be 0.477, the log10 vapour pressure (mmHg) was found to be 1.82 and the melting point is -118 °C.
On to `Brc1cc2c(cc1Br)Oc1cc(Br)c(Br)cc1O2`, for which the log10 vapour pressure (mmHg) was -8.32 and the melting point was determined as 334 °C.
In the case of `CCCC(C)(C)O`, the boiling point was 121 °C, the log10 vapour pressure (mmHg) worked out at 0.934 and the melting point is -103 °C.
`ICCCCCI`: the melting point is 9 °C.
`O=C(O)CC(Br)C(=O)O` (stereo unspecified) gave a melting point of 161 °C.
`CCn1c(C)nc2ccccc21` came in with a boiling point of 296 °C and a melting point of 51 °C.
Take `NC(=O)OCCCc1ccccc1`: the melting point was determined as 102 °C.
As to `COc1ccc(Cl)cc1Cl`, the boiling point came to 232 °C and the melting point is 28.5 °C.
The molecule `CN1CC=C(c2ccccc2)CC1` gave a melting point of 40 °C.
With `OCC(O)CI` (stereo unspecified), the melting point was 48.5 °C.
Molecule `CC[SiH](CC)CC` gave a boiling point of 109 °C.
For `Cc1ccc2occc2c1`, the boiling point worked out at 198 °C.
In turn, `CCC1=C(C[C@@H]2NCCc3cc(OC)c(OC)cc32)C[C@H]2c3cc(OC)c(OC)cc3CCN2C1` returned a melting point of 95 °C.
Regarding `Nc1ccc(Nc2ccc(N)cc2)cc1`, the melting point came out at 158 °C.
In turn, `CCCCc1nc(Cl)c(CO)n1Cc1ccc(-c2ccccc2-c2nnn[nH]2)cc1` came in with a melting point of 184 °C.
`CC(C)C1CCCc2ccccc21` (stereo unspecified): the ready biodegradability entry is on record as “not readily biodegradable”.
`COC(=O)C1CCCCC1` returned a boiling point of 183 °C.
On to `CC(=O)C=C(C)C`, for which the boiling point worked out at 130 °C, the log10 vapour pressure (mmHg) was found to be 0.914, the melting point was -59 °C and the ready biodegradability result was “readily biodegradable”.
On to `Clc1cc(Cl)c(-c2c(Cl)c(Cl)cc(Cl)c2Cl)c(Cl)c1Cl`, for which the log10 Henry constant (atm·m³/mol) was -4.77.
`N=C(N)c1ccc(N)cc1`: the melting point stood at 182 °C.
The molecule `CCC(N)CC` came in with a boiling point of 89 °C.
For the molecule `CCC1(N2CCCCC2)C(=O)NC(=O)NC1=O`, the melting point turned out to be 215 °C.
In the case of `Nc1c(Cl)c(Cl)c(Cl)c(Cl)c1Cl`, the log10 Koc (L/kg) came to 4.62, the melting point came to 235 °C and the ready biodegradability result is reported as “not readily biodegradable”.
In turn, `CCN(CC)CCNc1ccc(CO)c2sc3ccccc3c(=O)c12` had a melting point of 102 °C.
In turn, `CCC(C)CCC(C)(C)C` (stereo unspecified) showed a boiling point of 151 °C.
`Sc1ncc[nH]1`: the melting point worked out at 230 °C.
`CN(C)C(=O)N(C(=O)c1ccccc1)c1ccc(Cl)c(Cl)c1` showed a melting point of 119 °C.
In turn, `CC(C)CN=C=S` yielded a boiling point of 160 °C.
Still for that read-out and setting: next, `C#CC(=O)OCC`: 120 °C.
As for `Fc1c(F)c(F)c(Br)c(Br)c1F`, the boiling point came to 198 °C and the melting point came out at 12 °C.
In the case of `CCN(C(C)=O)c1ccccc1`, the boiling point was 260 °C and the melting point is 55 °C.
Consider `C1CCCNCC1`, for which the boiling point amounted to 138 °C, the log10 Henry constant (atm·m³/mol) was -5.21 and the log10 vapour pressure (mmHg) stood at 0.908.
As to `CCCCCCCCCCCCCCCCCC(=O)OCC(O)[C@H]1OC[C@@H](O)[C@@H]1O` (stereo partly specified), the ready biodegradability entry is given as “readily biodegradable”.
Turning to `c1ccc(Cc2cccnc2)cc1`, the boiling point is 287 °C and the melting point is 34 °C.
`CCCCC(=O)OCc1ccco1` had a boiling point of 228 °C.
Molecule `O=[N+]([O-])c1cc(I)c(O)c(I)c1` returned a melting point of 157 °C.
The molecule `Nc1cccc(Br)c1` came in with a boiling point of 251 °C and a melting point of 18.5 °C.
As for `O=C1Nc2ccc(Br)cc2C1=O`, the melting point came out at 250 °C.
Turning to `ClCCOCOCCCl`, the boiling point worked out at 218 °C, the log10 Koc (L/kg) is 1.79, the log10 vapour pressure (mmHg) is -0.879 and the melting point is -32 °C.
Consider `COc1ccc([N+](=O)[O-])c(OC)c1`, for which the melting point is 76.5 °C.
Regarding `O=C(O)c1cnccn1`, the ready biodegradability entry is reported as “readily biodegradable”.
Consider `COc1ccc(C[C@H](N)C(=O)N[C@H]2[C@@H](O)[C@H](n3cnc4c(N(C)C)ncnc43)O[C@@H]2CO)cc1`, for which the melting point came to 176 °C.
Molecule `C/C(=C/c1ccccc1)CC(N)=O` displayed a melting point of 133 °C.
Molecule `Brc1ccc(Br)c2ccccc12` gave a boiling point of 310 °C and a melting point of 83 °C.
As to `CCC(C)c1ccc(OCC2CO2)cc1` (stereo unspecified), the ready biodegradability entry is listed as “not readily biodegradable”.
For the molecule `Nc1cnn(-c2ccccc2)c(=O)c1Cl`, the log10 Koc (L/kg) stood at 2.08, the log10 vapour pressure (mmHg) was -6.35 and the melting point stood at 205 °C.
On to `C[N+](C)(C)CCCl.[Cl-]`, for which the log10 vapour pressure (mmHg) was -7.12.

Still in this data set, the particulars now being: fish.
Molecule `NC(=O)c1c(Cl)c(Cl)c(Cl)c(Cl)c1C(=O)O` registered a log10 BCF of 0.49.
In turn, `C=CCCCCCCCCCC` showed a log10 biotransformation half-life (days) of 0.83.
Consider `OC(C(F)(F)F)C(F)(F)F`, for which the log10 BCF is 0.4 and the log10 biotransformation half-life (days) is -1.32.
Turning to `CCSC(=O)N1CCCCCC1`, the log10 BCF was 1.41 and the log10 biotransformation half-life (days) is -1.08.
As to `Clc1cc(Cl)c(-c2c(Cl)c(Cl)cc(Cl)c2Cl)c(Cl)c1Cl`, the log10 biotransformation half-life (days) came out at 2.46.
On to `Nc1c(Cl)c(Cl)c(Cl)c(Cl)c1Cl`, for which the log10 BCF was found to be 2.71.
